According to ChEMBL document CHEMBL4017483, “Potent and selective oxytocin receptor agonists without disulfide bridges” (Bioorg Med Chem Lett, 2017):
Numbered stars: 1 amine (or outer) side, 2 acyl side, 3 side chain; on linkers, the order of the positions; unused ones are H or OH. Bridge positions count the residues as written; N and C are the ends. Square brackets hold non-standard residues; d marks the D form. Peptide text beside a SMILES is read from it. tBuAla = CC(C)(C)C[C@H](N)C(=O)O; Suc = O=C(CCC(=O)[*:2])[*:1]; Dap = NC[C@H](N)C(=O)O; Mpa = O=C(O)CCS

Tests used:
Homo sapiens [1] = organism: Homo sapiens; test: Selectivity ratio of EC50 for human V1b receptor to EC50 for human OTR
Homo sapiens [2] = organism: Homo sapiens; test: Selectivity ratio of EC50 for human V1a receptor to EC50 for human OTR
Vasopressin V1b receptor = target: T1, Vasopressin V1b receptor (Homo sapiens, UniProt P47901); test: Agonist activity at human V1b receptor expressed in CHO cells assessed as calcium mobilization measured after 30 mins by Fluo-4-AM dye based FLIPR assay; assay type: cell-based
T1 sequence (P47901 whole entry): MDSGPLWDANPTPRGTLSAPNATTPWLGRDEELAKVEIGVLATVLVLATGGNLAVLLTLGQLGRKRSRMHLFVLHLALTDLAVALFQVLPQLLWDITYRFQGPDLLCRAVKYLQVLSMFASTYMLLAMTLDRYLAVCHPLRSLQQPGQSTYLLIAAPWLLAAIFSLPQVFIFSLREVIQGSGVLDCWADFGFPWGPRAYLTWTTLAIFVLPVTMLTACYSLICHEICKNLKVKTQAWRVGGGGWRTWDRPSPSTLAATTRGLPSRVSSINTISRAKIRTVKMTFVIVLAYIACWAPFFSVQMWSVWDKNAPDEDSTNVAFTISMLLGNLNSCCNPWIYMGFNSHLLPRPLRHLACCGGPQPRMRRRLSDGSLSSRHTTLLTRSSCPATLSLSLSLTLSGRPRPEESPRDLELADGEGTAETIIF

Oxytocin receptor = target: T2, Oxytocin receptor (Homo sapiens, UniProt P30559); test: Agonist activity at human OTR expressed in CHO cells assessed as calcium mobilization measured after 30 mins by Fluo-4-AM dye based FLIPR assay; assay type: functional, cell-based
T2 sequence (P30559 whole entry): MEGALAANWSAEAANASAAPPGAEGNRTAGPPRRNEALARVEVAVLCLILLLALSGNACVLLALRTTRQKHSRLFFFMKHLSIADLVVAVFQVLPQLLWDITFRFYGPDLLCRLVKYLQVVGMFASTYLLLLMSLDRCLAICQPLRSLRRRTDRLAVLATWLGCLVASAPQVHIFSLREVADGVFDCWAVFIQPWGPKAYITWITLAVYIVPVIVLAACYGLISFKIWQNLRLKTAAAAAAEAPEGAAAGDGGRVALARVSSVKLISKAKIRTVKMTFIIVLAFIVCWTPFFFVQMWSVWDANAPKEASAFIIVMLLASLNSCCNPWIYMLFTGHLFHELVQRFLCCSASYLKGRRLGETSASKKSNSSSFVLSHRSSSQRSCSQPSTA

Vasopressin V1a receptor = Vasopressin V1a receptor (Homo sapiens, UniProt P37288); test: Agonist activity at human V1a receptor expressed in CHO cells assessed as calcium mobilization measured after 30 mins by Fluo-4-AM dye based FLIPR assay; assay type: cell-based
Chain of Vasopressin V1a receptor (P37288 whole entry): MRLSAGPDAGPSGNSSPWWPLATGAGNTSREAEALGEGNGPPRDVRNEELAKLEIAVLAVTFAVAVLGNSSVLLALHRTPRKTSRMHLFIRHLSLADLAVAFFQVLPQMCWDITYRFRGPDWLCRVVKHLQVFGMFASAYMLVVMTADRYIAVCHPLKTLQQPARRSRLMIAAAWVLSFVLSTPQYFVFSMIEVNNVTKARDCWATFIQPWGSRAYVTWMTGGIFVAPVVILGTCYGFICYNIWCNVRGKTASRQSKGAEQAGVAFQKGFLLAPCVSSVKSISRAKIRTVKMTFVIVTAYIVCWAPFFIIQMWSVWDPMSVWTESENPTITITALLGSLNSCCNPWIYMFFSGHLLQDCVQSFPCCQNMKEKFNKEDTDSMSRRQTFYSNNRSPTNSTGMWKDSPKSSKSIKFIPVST

Compound | Ratio EC50 (Homo sapiens [1]) | Ratio EC50 (Homo sapiens [2]) | EC50 (Vasopressin V1b receptor) [nM] | EC50 (Oxytocin receptor) [nM] | EC50 (Vasopressin V1a receptor) [nM]
CC[C@H](C)[C@@H]1NC(=O)[C@H](Cc2ccc(O)cc2)NC(=O)CCSSC[C@@H](C(=O)N[C@@H](CCC(=O)O)C(=O)N[C@@H](CC(C)C)C(=O)NCC(N)=O)NC(=O)[C@H](CC(N)=O)NC(=O)[C@H](CCC(N)=O)NC1=O ([Mpa]YIQNCELG-NH2; disulfide 1-6) | > 100 | > 100 | > 100 | 0.35 | > 100
CC[C@H](C)[C@@H]1NC(=O)[C@H](Cc2ccc(O)cc2)NC(=O)CCSSC[C@@H](C(=O)N2CCC[C@H]2C(=O)N[C@@H](CC(C)C)C(=O)NCC(N)=O)NC(=O)[C@H](CC(N)=O)NC(=O)[C@H](Cc2ccccc2)NC1=O ([Mpa]YIFNCPLG-NH2; disulfide 1-6) | > 4 | > 4 | > 100 | 22 | > 100
CC[C@H](C)[C@@H]1NC(=O)[C@H](Cc2ccc(O)cc2)NC(=O)CCSSC[C@@H](C(=O)N2CCC[C@H]2C(=O)N[C@@H](CC(C)C)C(=O)NCC(N)=O)NC(=O)[C@H](CO)NC(=O)[C@H](CCC(N)=O)NC1=O ([Mpa]YIQSCPLG-NH2; disulfide 1-6) | > 8 | > 8 | > 100 | 12 | > 100
CC(C)C[C@H](NC(=O)[C@@H]1CCCN1C(=O)[C@@H]1CSSCCC(=O)N[C@@H](Cc2ccc(O)cc2)C(=O)N[C@@H](CCCNC(=N)N)C(=O)N[C@@H](CCC(N)=O)C(=O)N[C@@H](CC(N)=O)C(=O)N1)C(=O)NCC(N)=O ([Mpa]YRQNCPLG-NH2; disulfide 1-6) | – | – | > 100 | > 100 | > 100
CCCC[C@H](NC(=O)[C@@H]1CCCN1C(=O)[C@@H]1CSSCCC(=O)N[C@@H](Cc2ccc(O)cc2)C(=O)N[C@@H]([C@@H](C)CC)C(=O)N[C@@H](CCC(N)=O)C(=O)N[C@@H](CC(N)=O)C(=O)N1)C(=O)NCC(N)=O | 33 | 290 | 0.5 | 0.015 | 4.4
CC[C@H](C)[C@@H]1NC(=O)[C@H](Cc2ccc(O)cc2)NC(=O)CCC(=O)NC[C@@H](C(=O)N2CCC[C@H]2C(=O)N[C@@H](CC(C)(C)C)C(=O)NCC(N)=O)NC(=O)[C@H](CC(N)=O)NC(=O)[C@H](CCC(N)=O)NC1=O (YIQN[Dap]P[tBuAla]G-NH2; linker N-5 via Suc) | > 100 | > 100 | > 100 | 0.26 | > 100
CC[C@H](C)[C@@H]1NC(=O)[C@H](Cc2ccc(O)cc2)NC(=O)CCSSC[C@@H](C(=O)N2C[C@H](O)C[C@H]2C(=O)N[C@@H](CC(C)C)C(=O)NCC(N)=O)NC(=O)[C@H](CC(N)=O)NC(=O)[C@H](CCC(N)=O)NC1=O | > 10000 | > 10000 | > 100 | 0.0053 | > 100
CC[C@H](C)[C@@H]1NC(=O)[C@H](Cc2ccc(O)cc2)NC(=O)CCSSC[C@@H](C(=O)N2CCCCC2C(=O)N[C@@H](CC(C)C)C(=O)NCC(N)=O)NC(=O)[C@H](CC(N)=O)NC(=O)[C@H](CCC(N)=O)NC1=O (stereo partly drawn) | 310 | > 1000 | 4 | 0.013 | > 100
CC[C@H](C)[C@@H]1NC(=O)[C@H](Cc2ccc(O)cc2)NC(=O)CCSSC[C@@H](C(=O)N2CCC[C@H]2C(=O)N[C@@H](CC(C)C)C(=O)NCC(N)=O)NC(=O)[C@H](CC(C)C)NC(=O)[C@H](CCC(N)=O)NC1=O ([Mpa]YIQLCPLG-NH2; disulfide 1-6) | – | – | > 100 | > 100 | > 100
CC(C)C[C@@H]1NC(=O)[C@H](Cc2ccc(O)cc2)NC(=O)CCSSC[C@@H](C(=O)N2CCC[C@H]2C(=O)N[C@@H](CC(C)C)C(=O)NCC(N)=O)NC(=O)[C@H](CC(N)=O)NC(=O)[C@H](CCC(N)=O)NC1=O ([Mpa]YLQNCPLG-NH2; disulfide 1-6) | 21 | > 100 | 3.9 | 0.19 | > 100
CC(C)C[C@H](NC(=O)[C@@H]1CCCN1C(=O)[C@@H]1CSSCCC(=O)N[C@@H](Cc2ccc(O)cc2)C(=O)N[C@@H](Cc2ccccc2)C(=O)N[C@@H](CCC(N)=O)C(=O)N[C@@H](CC(N)=O)C(=O)N1)C(=O)NCC(N)=O ([Mpa]YFQNCPLG-NH2; disulfide 1-6) | 3.9 | > 100 | 0.43 | 0.11 | > 100
CC(C)C[C@H](NC(=O)[C@@H]1CCCN1C(=O)[C@@H]1CSSCCC(=O)N[C@@H](Cc2ccc(O)cc2)C(=O)N[C@@H](C)C(=O)N[C@@H](CCC(N)=O)C(=O)N[C@@H](CC(N)=O)C(=O)N1)C(=O)NCC(N)=O ([Mpa]YAQNCPLG-NH2; disulfide 1-6) | > 10 | > 10 | > 100 | 4.4 | > 100
CCCCCC[C@H](NC(=O)[C@@H]1CCCN1C(=O)[C@@H]1CSSCCC(=O)N[C@@H](Cc2ccc(O)cc2)C(=O)N[C@@H]([C@@H](C)CC)C(=O)N[C@@H](CCC(N)=O)C(=O)N[C@@H](CC(N)=O)C(=O)N1)C(=O)NCC(N)=O | 20 | 120 | 0.55 | 0.027 | 3.1
CC[C@H](C)[C@@H]1NC(=O)[C@H](Cc2ccc(O)cc2)NC(=O)CCSSC[C@@H](C(=O)N2CCC[C@H]2C(=O)N[C@@H](CC(C)C)C(=O)NCC(N)=O)NC(=O)[C@H](CC(N)=O)NC(=O)[C@H](CO)NC1=O ([Mpa]YISNCPLG-NH2; disulfide 1-6) | 120 | > 1000 | 8.9 | 0.072 | > 100
S | > 100 | > 100 | > 100 | 0.12 | > 100
CC[C@H](C)[C@@H]1NC(=O)[C@H](Cc2ccc(O)cc2)NC(=O)CCSSC[C@@H](C(=O)N2CCC[C@H]2C(=O)N[C@@H](CC(C)C)C(=O)NCC(N)=O)NC(=O)[C@H](CCCNC(=N)N)NC(=O)[C@H](CCC(N)=O)NC1=O ([Mpa]YIQRCPLG-NH2; disulfide 1-6) | – | – | > 100 | > 100 | > 100
CC[C@H](C)[C@@H]1NC(=O)[C@H](CO)NC(=O)CCSSC[C@@H](C(=O)N2CCC[C@H]2C(=O)N[C@@H](CC(C)C)C(=O)NCC(N)=O)NC(=O)[C@H](CC(N)=O)NC(=O)[C@H](CCC(N)=O)NC1=O ([Mpa]SIQNCPLG-NH2; disulfide 1-6) | – | – | > 100 | > 100 | > 100
CC[C@H](C)[C@@H]1NC(=O)[C@H](Cc2ccc(O)cc2)NC(=O)CCSSC[C@@H](C(=O)N2CCC[C@H]2C(=O)N[C@@H](CC(C)C)C(=O)NCC(N)=O)NC(=O)[C@H](Cc2ccccc2)NC(=O)[C@H](CCC(N)=O)NC1=O ([Mpa]YIQFCPLG-NH2; disulfide 1-6) | – | – | > 100 | > 100 | > 100
CC(C)C[C@H](NC(=O)[C@@H]1CCCN1C(=O)[C@@H]1CSSCCC(=O)N[C@@H](Cc2ccc(O)cc2)C(=O)N[C@@H](CCC(=O)O)C(=O)N[C@@H](CCC(N)=O)C(=O)N[C@@H](CC(N)=O)C(=O)N1)C(=O)NCC(N)=O ([Mpa]YEQNCPLG-NH2; disulfide 1-6) | – | – | > 100 | > 100 | > 100
CC[C@H](C)[C@@H]1NC(=O)[C@H](C)NC(=O)CCSSC[C@@H](C(=O)N2CCC[C@H]2C(=O)N[C@@H](CC(C)C)C(=O)NCC(N)=O)NC(=O)[C@H](CC(N)=O)NC(=O)[C@H](CCC(N)=O)NC1=O ([Mpa]AIQNCPLG-NH2; disulfide 1-6) | – | – | > 100 | > 100 | > 100
CC[C@H](C)[C@@H]1NC(=O)[C@H](CCC(=O)O)NC(=O)CCSSC[C@@H](C(=O)N2CCC[C@H]2C(=O)N[C@@H](CC(C)C)C(=O)NCC(N)=O)NC(=O)[C@H](CC(N)=O)NC(=O)[C@H](CCC(N)=O)NC1=O ([Mpa]EIQNCPLG-NH2; disulfide 1-6) | – | – | > 100 | > 100 | > 100
CC[C@H](C)[C@@H]1NC(=O)[C@H](CCCNC(=N)N)NC(=O)CCSSC[C@@H](C(=O)N2CCC[C@H]2C(=O)N[C@@H](CC(C)C)C(=O)NCC(N)=O)NC(=O)[C@H](CC(N)=O)NC(=O)[C@H](CCC(N)=O)NC1=O ([Mpa]RIQNCPLG-NH2; disulfide 1-6) | – | – | > 100 | > 100 | > 100
CC[C@H](C)[C@@H]1NC(=O)[C@H](Cc2ccc(O)cc2)NC(=O)CCSSC[C@@H](C(=O)N2CCC[C@H]2C(=O)N[C@@H](CC(C)C)C(=O)NCC(N)=O)NC(=O)[C@H](CC(N)=O)NC(=O)[C@H](CCC(N)=O)NC1=O | – | – | 3.2 | – | –
